pIC50: −log10 of the molar value.
Experiments:
[1] = target: EGFR (mouse) (UniProt P00533); details: 3t3
[2] = target: CDK2 (UniProt P24941); assay: Enzyme Assay

| Structure (SMILES) | pIC50 [1] | pIC50 [2] |
| --- | --- | --- |
| O=C1Nc2ccc(S(=O)(=O)Nc3cccc(Cl)c3)cc2/C1=C/c1[nH]cc2c1CCOC2=O | < 4.70 | 6.31 |
| O=C1Nc2cc(C(=O)O)ccc2/C1=C/c1[nH]cc2c1CCOC2=O | < 4.70 | 5.97 |
| O=C1Nc2cc(Cl)ccc2/C1=C/c1[nH]cc2c1CCOC2=O | < 4.70 | 6.39 |
| O=C1Nc2ccc(-c3ccccc3)cc2/C1=C/c1[nH]cc2c1CCOC2=O | < 4.70 | 5.42 |
| CC(=O)Nc1ccc2c(c1)NC(=O)/C2=C\c1[nH]cc2c1CCOC2=O | < 4.70 | 5.10 |
| NS(=O)(=O)c1ccc2c(c1)/C(=C/c1[nH]cc3c1CCNC3=O)C(=O)N2 | < 4.70 | > 8.30 |
| COc1ccc2c(c1)/C(=C/c1[nH]cc3c1CCNC3=O)C(=O)N2 | < 4.70 | 6.54 |
| CN(C)S(=O)(=O)c1ccc2c(c1)/C(=C/c1[nH]cc3c1CCNC3=O)C(=O)N2 | < 4.70 | 7.00 |
| O=C1Nc2ccc(Br)cc2/C1=C/c1[nH]cc2c1CCOC2=O | < 4.70 | 6.62 |
| CNS(=O)(=O)c1ccc2c(c1C)/C(=C/c1[nH]cc3c1CCOC3=O)C(=O)N2 | < 4.70 | 8.26 |
| O=C1Nc2ccc(S(=O)(=O)Nc3ccccc3)cc2/C1=C/c1[nH]cc2c1CCOC2=O | < 4.70 | 7.40 |
| CNS(=O)(=O)c1ccc2c(c1)/C(=C/c1[nH]cc3c1CCOC3=O)C(=O)N2 | < 4.70 | 8.30 |
| COc1ccc2c(c1)/C(=C/c1[nH]cc3c1CCOC3=O)C(=O)N2 | < 4.70 | 7.40 |
| O=C1Nc2cc(Cl)ccc2/C1=C/c1[nH]cc2c1CCNC2=O | < 4.70 | 5.14 |
| O=C1Nc2ccc(S(=O)(=O)N3CCc4ccccc4C3)cc2/C1=C/c1[nH]cc2c1CCOC2=O | < 4.70 | 6.14 |
| O=C1Nc2ccc(C(=O)N3CCCC3)cc2/C1=C/c1[nH]cc2c1CCNC2=O | < 4.70 | 7.15 |
| Cc1cccc2c1/C(=C/c1[nH]cc3c1CCOC3=O)C(=O)N2 | < 4.70 | 6.57 |
| O=C1Nc2cc(-c3ccccc3)ccc2/C1=C/c1[nH]cc2c1CCOC2=O | < 4.70 | < 5.00 |
| O=C1Nc2ccc(S(=O)(=O)N3CCc4ccccc43)cc2/C1=C/c1[nH]cc2c1CCOC2=O | < 4.70 | 6.46 |
| COc1ccc2c(c1)NC(=O)/C2=C\c1[nH]cc2c1CCOC2=O | – | 5.81 |
| O=C1Nc2cc(-c3ccc(F)cc3)ccc2/C1=C/c1[nH]cc2c1CCOC2=O | < 4.70 | 5.97 |
| Cc1c(Cl)ccc2c1/C(=C/c1[nH]cc3c1CCOC3=O)C(=O)N2 | < 4.70 | 6.51 |
| O=C1Nc2ccc(-c3ccccc3)cc2/C1=C/c1[nH]cc2c1CCNC2=O | < 4.70 | 5.49 |
| O=C1Nc2cc(Br)ccc2/C1=C/c1[nH]cc2c1CCNC2=O | < 4.70 | < 5.00 |
| O=C1Nc2ccc(F)cc2/C1=C/c1[nH]cc2c1CCOC2=O | < 4.70 | 7.10 |
| O=C1Nc2ccc(Cl)cc2/C1=C/c1[nH]cc2c1CCOC2=O | < 4.70 | 7.05 |

| Structure (SMILES) | pIC50 [1] | pIC50 [2] |
| --- | --- | --- |
| O=C1Nc2c(Cl)cccc2/C1=C/c1[nH]cc2c1CCOC2=O | < 4.70 | 5.59 |
| O=C1Nc2cccc(CCO)c2/C1=C/c1[nH]cc2c1CCOC2=O | < 4.70 | 7.52 |
| O=C1Nc2ccc3c(c2/C1=C/c1[nH]cc2c1CCOC2=O)CCOS3(=O)=O | < 4.70 | 6.89 |
| COc1ccccc1-c1ccc2c(c1)NC(=O)/C2=C\c1[nH]cc2c1CCOC2=O | < 4.70 | < 5.00 |
| O=C1Nc2ccc(S(=O)(=O)N3CCCc4ccccc43)cc2/C1=C/c1[nH]cc2c1CCOC2=O | < 4.70 | 6.26 |
| CN(c1cccc(Cl)c1)S(=O)(=O)c1ccc2c(c1)/C(=C/c1[nH]cc3c1CCOC3=O)C(=O)N2 | < 4.70 | 5.00 |
| O=C1Nc2ccc(S(=O)(=O)N3CCc4cc(Br)ccc43)cc2/C1=C/c1[nH]cc2c1CCOC2=O | < 4.70 | 5.54 |
| CC(C)NS(=O)(=O)c1ccc2c(c1)/C(=C/c1[nH]cc3c1CCOC3=O)C(=O)N2 | < 4.70 | 7.22 |
| O=C1Nc2ccc(C(=O)O)cc2/C1=C/c1[nH]cc2c1CCOC2=O | < 4.70 | 8.40 |
| O=C1Nc2cc(-c3cccnc3)ccc2/C1=C/c1[nH]cc2c1CCOC2=O | < 4.70 | 5.24 |
| CNS(=O)(=O)c1ccc2c(c1)/C(=C/c1[nH]cc3c1CCNC3=O)C(=O)N2 | < 4.70 | 8.05 |
| O=C1Nc2cccc(CCO)c2/C1=C/c1[nH]cc2c1CCNC2=O | < 4.70 | 6.35 |
| O=C1Nc2ccc(C(=O)N3CCOCC3)cc2/C1=C/c1[nH]cc2c1CCNC2=O | < 4.70 | 6.25 |
| O=C1Nc2cc(Br)ccc2/C1=C/c1[nH]cc2c1CCOC2=O | < 4.70 | 6.01 |
| O=C1Nc2ccc(-c3cccc(C(=O)O)c3)cc2/C1=C/c1[nH]cc2c1CCOC2=O | < 4.70 | 5.17 |
| O=C1Nc2cc(-c3cccc(C(=O)O)c3)ccc2/C1=C/c1[nH]cc2c1CCOC2=O | 4.73 | 5.27 |
| O=C1Nc2ccc(Br)cc2/C1=C/c1[nH]cc2c1CCNC2=O | < 4.70 | 6.28 |
| O=C1Nc2cc(F)ccc2/C1=C/c1[nH]cc2c1CCOC2=O | < 4.70 | 6.44 |
| Cc1c(Br)ccc2c1/C(=C/c1[nH]cc3c1CCOC3=O)C(=O)N2 | < 4.70 | 6.80 |
| CN(C)C(=O)c1ccc2c(c1)/C(=C/c1[nH]cc3c1CCNC3=O)C(=O)N2 | < 4.70 | 7.05 |
| COc1cccc(-c2ccc3c(c2)NC(=O)/C3=C\c2[nH]cc3c2CCOC3=O)c1 | < 4.70 | < 5.00 |
| O=C1Nc2cc(-c3ccccc3)ccc2/C1=C/c1[nH]cc2c1CCNC2=O | < 4.70 | 5.22 |
| COc1ccc(-c2ccc3c(c2)NC(=O)/C3=C\c2[nH]cc3c2CCOC3=O)cc1 | < 4.70 | 6.00 |
| CN(C)S(=O)(=O)c1ccc2c(c1)/C(=C/c1[nH]cc3c1CCOC3=O)C(=O)N2 | < 4.70 | 7.52 |
| O=C1Nc2ccc(F)cc2/C1=C/c1[nH]cc2c1CCNC2=O | < 4.70 | 6.52 |
| NS(=O)(=O)c1ccc2c(c1)/C(=C/c1[nH]cc3c1CCOC3=O)C(=O)N2 | < 4.70 | 8.00 |
